Tests used:
β-oxidation pathway [1] = assay: Continuous fermentation, cofeeding of nonanoic acid and glucose, increasing acrylic acid; type: cell-based, Pseudomonas putida KT2440; conditions: inhibitor concentration increased from 0 to 0.15 g/L; value at highest concentration
Protocol: (§1) Continuous fermentations were carried out in a 1.5 L stirred tank bioreactor (Bioflo IIc, New Brunswick Scientific, N.J., USA) with a working volume of 1.1 L. The fermentor was operated at 28.5±1° C. and the pH was automatically controlled at 6.85±0.05 using 2 N potassium hydroxide solution. The dissolved oxygen was monitored with an Ingold polarographic probe (available from Mettler-Toledo Ingold Inc., Bedford, Mass., USA) and maintained no lower than 30% air saturation with an aeration rate of 0.8 vvm (void volumes per minute) and an agitation speed up to 900 rpm. Nonanoic acid was fed separately at controlled speed by a peristaltic nutrient pump on the bioreactor. All other aqueous medium was mixed and fed together. The dilution rate of all continuous fermentations was controlled at […] by fixing the working volume and a constant aqueous medium feeding rate.
(§2) During shake flask, batch, fed-batch, or continuous cultivations, fermentation broth samples were taken. Known amounts of such broths were centrifuged to obtain the medium's supernatant and concentrated biomass. […]
(§3) Dried samples were weighed to obtain dry biomass amounts. PHA content and composition were determined by gas chromatographic method as described below (Sun, Z., et al. (2007). Appl. Microbiol. Biotechnol., 74:69). […]

β-oxidation pathway [2] = assay: Continuous fermentation, cofeeding of dodecanoic acid and glucose, increasing acrylic acid; type: cell-based, Pseudomonas putida KT2440
Protocol: as §1, with “Nonanoic acid was fed separately at controlled speed by a peristaltic nutrient pump on the bioreactor.” left out
(§4) During shake flask, batch, fed-batch, or continuous cultivations, fermentation broth samples were taken. Known amounts of such broths were centrifuged to obtain the medium's supernatant and concentrated biomass. The biomasses were washed with distilled water, centrifuged again, re-suspended, frozen, and lyophilized to obtain dried biomass. The supernatant was used to analyze carbon source, inhibitor, and nutrient concentration. The dried biomass was used to obtain the cell concentration, cellular PHA content and composition.
as §3
(§5) Known amount of dried biomass, or purified MCL-PHA, or MCL-PHA standard with known composition and elution time of each of its components, were reacted in 2 mL chloroform plus 1 mL methanol containing 15% (v/v) concentrated sulfuric acid as acidifying agent and 0.2% (w/v) benzoic acid as internal standard, at 100° C. for 4 hours. […] Methyl-3-hydroxyalkanoate was identified and its molar amount was calculated by comparing peak area to the corresponding peak of known methyl-3-hydroxyalkanoate generated from known MCL-PHA standard, which was characterized by NMR and GC/MS. […]

[3] = tested on: Pseudomonas putida KT2440; assay: Shake flask growth with acrylic acid, absorbance at 650 nm; type: cell-based; conditions: shake flasks
Protocol: A basic glucose-only shake flask medium was a 100 mL liquid medium in a 500 mL Erlenmeyer flask. The medium comprised (g L^−1): (NH4)2SO4 (4.70), MgSO4.7H2O (0.80), Na2HPO4.7H2O (12.0), KH2PO4 (2.70), glucose (9.0), nutrient broth (1.0).
The effect of acrylic acid on cell growth was determined using Pseudomonas putida KT2440 (ATCC 47054). Pseudonomas putida KT2440 (ATCC 47054) was maintained on nutrient agar plates at 4° C. before inoculation. The toxicity of a β-oxidation inhibitor, acrylic acid, to the growth of Pseudomonas putida KT2440 was determined by shake flask experiment. The cultivation conditions were 28° C. in a New Brunswick Shaker-Incubator at 200 rpm. The medium used was the basic glucose-only shake flask medium described above, plus appropriate amount of acrylic acid.
500 mL Erlenmeyer flasks were used with each containing 100 mL of medium. In addition to the basic medium described above, increasing concentrations of acrylic acid (AA) at 0, 0.2, 0.4, 0.8, 2.0 g/L were prepared in each flask. The first set of such flasks was cultured for 12 h and the second set of such flasks was cultured for 24 h. After the specified culturing time, a sample was taken to measure the absorbance at 650 nm in the spectrophotometer.

β-oxidation pathway [4] = assay: Fed-batch fermentation, cofeeding of nonanoic acid, glucose and acrylic acid; type: cell-based, Pseudomonas putida KT2440; conditions: nonanoic acid:glucose:acrylic acid 1.25:1:0.03 (w/w/w); by GC; throughout 32 hours fermentation
Protocol: Fed-batch fermentations were conducted in a 5 L stirred tank bioreactor with 3 L working volume (Minifors, INFORS HT, Bottmingen, Switzerland). The specific growth rate was controlled at 0.25 h^−1 or 0.15 h^−1 by exponentially feeding the carbon sources as growth-limiting nutrients. β-oxidation inhibitor was added with the glucose feeding solution at a fixed mass as specified in the related examples. […]
as §3, §5

β-oxidation pathway [5] = assay: Continuous fermentation, nonanoic acid as sole carbon source, increasing acrylic acid; type: cell-based, Pseudomonas putida KT2440
Protocol: as §1
as §4, with “The dried biomass was used to obtain the cell concentration, cellular PHA content and composition.” left out
as §3, §5

β-oxidation pathway [6] = assay: Continuous fermentation, cofeeding of octanoic acid and glucose, increasing acrylic acid; type: cell-based, Pseudomonas putida KT2440; conditions: inflow acrylic acid 0.2 g/L
Protocol: as §1, with “Nonanoic acid was fed separately at controlled speed by a peristaltic nutrient pump on the bioreactor.” left out
as §2, with “biomass. The biomasses were washed with distilled water, centrifuged again, re-suspended, frozen, and lyophilized to obtain dried biomass.” for “biomass.”
as §3

**Q.** For `C=CC(=O)O` [acrylic acid], which “intracellular PHN content” value (β-oxidation pathway [1]) is on record?
**A.** ~64%

**Q.** What about the “mole percentage of C9” value (β-oxidation pathway [1]) of the same compound?
**A.** 96 mol %

**Q.** What about the “mole percentage of C12” value (β-oxidation pathway [2]; inflow acrylic acid 0.2 g/L (FIG. 10B)) of the same compound?
**A.** 60 mol %

**Q.** And the “molar C12 content” value (β-oxidation pathway [2]; inlet acrylic acid 0.1 g L^−1)?
**A.** 34.5%

**Q.** What about the “molar C12 content” value (β-oxidation pathway [2]; inlet acrylic acid 0.2 g L^−1) of the same compound?
**A.** 59%

**Q.** And the “reduction of Absorbance at λ=650 nm” value ([3]; acrylic acid 0.2 g L^−1, 12 h and 24 h cultures, glucose medium)?
**A.** two fold

**Q.** What about the cell growth ([3]; acrylic acid greater than 0.4 g L^−1) of the same compound?
**A.** either weak growth or no growth

**Q.** What about the “monomeric composition, C9 (3-OH-nonanoate)” value (β-oxidation pathway [4]) of the same compound?
**A.** 87.8±0.8 mol %

**Q.** What about the PHA content (β-oxidation pathway [5]; acrylic acid 0.2 g L^−1, nonanoic acid only carbon source) of the same compound?
**A.** very little PHA content

**Q.** What about the “molar C9 fraction of the PHA produced” value (β-oxidation pathway [5]; at increased inhibitor concentration, nonanoic acid only, maximum reached) of the same compound?
**A.** about 90%

**Q.** And the “acrylic acid concentration that affected monomeric composition” value (β-oxidation pathway [5]; inflow concentration, nonanoic acid only, steady state)?
**A.** 0.02 g/L

**Q.** And the “mole percentage of C8” value (β-oxidation pathway [6])?
**A.** 98 mol %

Reference: patent US8273852B2, “Medium chain length polyhydroxyalkanoate polymer and method of making same” (Queen's University at Kingston, priority 2009, dated 2012)
